The values that follow come from patent US20230203060A1 (GENFLEET THERAPEUTICS (SHANGHAI) INC., priority 2020, published 2023).

pIC50: −log10 of the molar value.

Type in all cases: cell-based, human
The test system of experiment [1] is KRAS G12C mutant NCI-H358 cells. Briefly: Cell proliferation inhibition experiment, 3D spheroid, CellTiter-Glo, NCI-H358. The conditions noted are these: Homo sapiens, NCI-H358, 120 h, NCI-H358 (KRAS G12C mutant) 3D spheroid, 5 days with compound, CellTiter-Glo; read-out: H358 IC50. An outline of the steps:
(§1)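 Luminescence (CellTiter-Glo, 30 min incubation) was read after 5 days of compound treatment of overnight-formed spheroids of 800 H358 or 400 A549 cells in 2% FBS medium. Inhibition relative to DMSO and blank controls was fitted with a four-parameter model to yield IC50.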

Experiment [2] concerns A549 cells (KRAS G12S mutant). Briefly: Cell proliferation inhibition experiment, 3D spheroid, CellTiter-Glo, A549. The conditions noted are these: Homo sapiens, A549, 120 h, A549 (KRAS G12S mutant) 3D spheroid, 5 days with compound, CellTiter-Glo; read-out: A549 IC50. The method in brief: as §1
For experiment [3], the system named is KRAS G12C mutant MIA PaCa-2 cells. Briefly: Cell proliferation inhibition experiment, 3D spheroid, CellTiter-Glo, MIA PaCa-2. The conditions noted are these: Homo sapiens, MIA PaCa-2, 120 h, 3D cell model in 384-well spheroid plate, 5 days, CellTiter-Glo; read-out: MIA-PaCa2 IC50. The method in brief: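 200 MIA PaCa-2 cells/well grown overnight as 3D spheroids, then exposed to 3.16-fold compound dilutions (0.1% DMSO final) for 5 days. Viability read by CellTiter-Glo luminescence; inhibition calculated against DMSO and medium-only controls, and IC50 fitted by four-parameter model.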

As to `C=CC(=O)N1CCN2C(=O)c3c(OC4CCCN(C)C4)nc(-c4c(O)cccc4F)c(Cl)c3OC[C@H]2C1` (stereo partly drawn) [Z43, (6aR)-8-acryloyl-4-chloro-3-(2-fluoro-6-hydroxyphenyl)-1-((1-methylpiperidin-3-yl)oxy)-6,6a,7,8,9,10-hexahydro-12H-pyrazino[2,1-c]pyrido[3,4-f][1,4]oxazepin-12-one], the figures for the pIC50 in experiment [1], in experiment [2] and in experiment [3] were 7.41, < 4.52 and 7.47, respectively.
On to `C=CC(=O)N1CCN2C(=O)c3c(N4CCC[C@H]4C)nc(-c4c(O)cccc4F)c(Cl)c3OC[C@H]2C1` [Z48, (6aR)-8-acryloyl-1-((R)-2-methylpyrrolidin-1-yl)-4-chloro-3-(2-fluoro-6-hydroxyphenyl)-6,6a,7,8,9,10-hexahydro-12H-pyrazino[2,1-c]pyrido[3,4-f][1,4]oxazepin-12-one], for which the pIC50 is 7.82 in experiment [1], < 5.30 in experiment [2] and 7.55 in experiment [3].
Taken in the same sequence, the figures for `C=CC(=O)N1CCN2C(=O)c3c(N4CCC[C@@H]4C)nc(-c4c(O)cccc4F)c(Cl)c3OC[C@H]2C1` [Z49, (6aR)-8-acryloyl-1-((S)-2-methylpyrrolidin-1-yl)-4-chloro-3-(2-fluoro-6-hydroxyphenyl)-6,6a,7,8,9,10-hexahydro-12H-pyrazino[2,1-c]pyrido[3,4-f][1,4]oxazepin-12-one] were 8.40, < 5.30 and 8.15.
Turning to `C=CC(=O)N1CCN2C(=O)c3c(N4CC(O)CC4(C)C)nc(-c4c(O)cccc4F)c(Cl)c3OC[C@H]2C1` (stereo partly drawn) [Z50, (6aR)-8-amyloyl-4-chloro-3-(2-fluoro-6-hydroxyphenyl)-1-(4-hydroxy-2,2-dimethylpyrrolidin-1-yl)-6,6a,7,8,9,10-hexahydro-12H-pyrazino[2,1-c]pyrido[3,4-f][1,4]oxazepin-12-one], the pIC50 in experiment [1] was 8.70; in experiment [2], < 5.30; in experiment [3] it was 8.70.
As to `C=CC(=O)N1CCN2C(=O)c3c(N4CCN(C)C[C@@H]4C)nc(-c4c(O)cccc4F)c(Cl)c3OC[C@H]2C1` [Z51, (6aR)-8-acryloyl-4-chloro-1-((S)-2,4-dimethylpiperazin-1-yl)-3-(2-fluoro-6-hydroxyphenyl)-6,6a,7,8,9,10-hexahydro-12H-pyrazino[2,1-c]pyrido[3,4-f][1,4]oxazepin-12-one], the pIC50 is 8.40 in experiment [1], < 5.30 in experiment [2] and 8.15 in experiment [3].
On to `C=CC(=O)N1CCN2C(=O)c3c(N4CCCC45CC5)nc(-c4c(O)cccc4F)c(Cl)c3OC[C@H]2C1` [Z56, (6aR)-8-acryloyl-4-chloro-3-(2-fluoro-6-hydroxyphenyl)-1-(4-azaspiro[2.4]heptan-4-yl)-6,6a,7,8,9,10-hexahydro-12H-pyrazino[2,1-c]pyrido[3,4-f][1,4]oxazepin-12-one], for which the pIC50 in experiment [1] is 7.77; in experiment [2], < 5.15; in experiment [3] it was 7.15.
Turning to `C=CC(=O)N1CCN2C(=O)c3c(N4CCN(C)C[C@@H]4C)nc(-c4ccccc4F)c(Cl)c3OC[C@H]2C1` [Z407-1, (R)-8-acryloyl-4-chloro-1-((S)-2,4-dimethylpiperazin-1-yl)-3-(2-fluorophenyl)-6,6a,7,8,9,10-hexahydro-12H-pyrazino[2,1-c]pyrido[3,4-f][1,4]oxazepin-12-one], the pIC50 in experiment [1] was 7.73; in experiment [2], 5.04; in experiment [3] it was 7.41.
The like results for `C=CC(=O)N1CCN2C(=O)c3c(N4CC(O)CC4(C)C)nc(-c4ccccc4Cl)c(F)c3OC[C@H]2C1` (stereo partly drawn) [Z414-1, (6aR)-8-acryloyl-3-(2-chlorophenyl)-4-fluoro-1-(4-hydroxy-2,2-dimethylpyrrolidin-1-yl)-6,6a,7,8,9,10-hexahydro-12H-pyrazino[2,1-c]pyrido[3,4-f][1,4]oxazepin-12-one] were, in that order, 7.72, 5.05 and 6.90.
Taken in the same sequence, the figures for `C=CC(=O)N1CCN2C(=O)c3c(N4CCN(C)C[C@@H]4C)nc(-c4c(F)cccc4OC)c(F)c3OC[C@H]2C1` [Z451, (6aR)-8-acryloyl-1-((S)-2,4-dimethylpiperazin-1-yl)-4-fluoro-3-(2-fluoro-6-methoxyphenyl)-6,6 a,7,8,9,10-hexahydro-12H-pyrazino[2,1-c]pyrido[3,4-f][1,4]oxazepin-12 (6 aH)-one] were 6.80, 5.24 and 6.44.
The like results for `C=CC(=O)N1CCN2C(=O)c3c(N4CCN(C)C[C@@H]4C)nc(-c4c(O)cccc4Cl)c(Cl)c3OC[C@H]2C1` [Z452, (6aR)-8-acryloyl-4-chloro-3-(2-chloro-6-hydroxyphenyl)-1-((S)-2,4-dimethylpiperazin-1-yl)-6,6a,7,8,9,10-hexahydro-12H-pyrazino[2,1-c]pyrido[3,4-f][1,4]oxazepin-12-one] were, in that order, 8.41, 5.05 and 7.95.
`C=CC(=O)N1CCN2C(=O)c3c(N4C[C@@H](N(C)C)CC4(C)C)nc(-c4ccccc4F)c(Cl)c3OC[C@H]2C1` [Z453-1, (R)-8-acryloyl-4-chloro-1-((S)-4-(dimethylamino)-2,2-dimethylpyrrolidin-1-yl)-3-(2-fluorophenyl)-6,6a,7,8,9,10-hexahydro-12H-pyrazino[2,1-c]pyrido[3,4-f][1,4]oxazepin-12-one]: the pIC50 in experiment [1] is 8.22; in experiment [2], 5.48; in experiment [3], 7.85.
The like results for `C=CC(=O)N1CCN2C(=O)c3c(N4CC(N5CCN(C)CC5)CC4(C)C)nc(-c4ccccc4F)c(Cl)c3OC[C@H]2C1` (stereo partly drawn) [Z454, (6aR)-8-acryloyl-4-chloro-1-(2,2-dimethyl-4-(4-methylpiperazin-1-yl)pyrrolidin-1-yl)-3-(2-fluorophenyl)-6,6a,7,8,9,10-hexahydro-12H-pyrazino[2,1-c]pyrido[3,4-f][1,4]oxazepin-12-one] were, in that order, 8.70, 5.67 and 8.33.
The like results for `C=CC(=O)N1CCN2C(=O)c3c(N4CCN(C)C[C@@H]4C)nc(-c4c(F)cccc4C(F)F)c(Cl)c3OC[C@H]2C1` [Z456, (6aR)-8-acryloyl-4-chloro-3-(2-(difluoromethyl)-6-fluorophenyl)-1-((S)-2,4-dimethylpiperazin-1-yl)-6,6a,7,8,9,10-hexahydro-12H-pyrazino[2,1-c]pyrido[3,4-f][1,4]oxazepin-12-one] were, in that order, 8.03, 5.01 and 7.64.
Taken in the same sequence, the figures for `C=CC(=O)N1CCN2C(=O)c3c(NC(C)(C)C)nc(-c4ccccc4F)c(Cl)c3OC[C@H]2C1` [Z457, (R)-8-acryloyl-1-(tert-butylamino)-4-chloro-3-(2-fluorophenyl)-6,6a,7,8,9,10-hexahydro-12H-pyrazino[2,1-c]pyrido[3,4-f][1,4]oxazepin-12-one] were 7.20, 5.53 and 6.28.
For the compound `C=CC(=O)N1CCN2C(=O)c3c(N4CC(C(=O)O)CC4(C)C)nc(-c4c(O)cccc4F)c(Cl)c3OC[C@H]2C1` (stereo partly drawn) [Z458, 1-((6aR)-8-acryloyl-4-chloro-3-(2-fluoro-6-hydroxyphenyl)-12-oxo-6,6a,7,8,9,10-hexahydro-12H-pyrazino[2,1-c]pyrido[3,4-f][1,4]oxazepin-1-yl)-5,5-dimethylpyrrolidine-3-carboxylic acid], the pIC50 in experiment [1] is 6.52; in experiment [2], < 4.52; in experiment [3], < 6.00.
Taken in the same sequence, the figures for `C=CC(=O)N1CCN2C(=O)c3c(N4CCC[C@@]4(C)C(=O)NC)nc(-c4c(O)cccc4F)c(Cl)c3OC[C@H]2C1` [Z462, (2S)-1-((6aR)-8-acryloyl-4-chloro-3-(2-fluoro-6-hydroxyphenyl)-12-oxo-6,6a,7,8,9,10-hexahydro-12H-pyrazino[2,1-c]pyrido[3,4-f][1,4]oxazepin-1-yl)-N,2-dimethylpyrrolidine-2-carboxamide] were 7.91, 4.54 and 7.80.
Regarding `C=CC(=O)N1CCN2C(=O)c3c(N4C[C@@H](N5CCN(C)CC5)C[C@@H]4C)nc(-c4ccccc4F)c(Cl)c3OC[C@H]2C1` [Z470-2], the pIC50 in experiment [1] is 8.52; in experiment [2], 5.02; in experiment [3] it was 8.40.
Taken in the same sequence, the figures for `C=CC(=O)N1CCN2C(=O)c3c(N4CC(N5CCN(C)CC5)CC4(C)C)nc(-c4ccccc4F)c(F)c3OC[C@H]2C1` (stereo partly drawn) [Z474, (6aR)-8-acryloyl-1-(2,2-dimethyl-4-(4-methylpiperazin-1-yl)pyrrolidin-1-yl)-4-fluoro-3-(2-fluorophenyl)-6,6a,7,8,9,10-hexahydro-12H-pyrazino[2,1-c]pyrido[3,4-f][1,4]oxazepin-12-one] were 8.05, 5.17 and 7.77.
As for `C=CC(=O)N1CCN2C(=O)c3c(N4C[C@@H](N(C)C)CC4(C)C)nc(-c4c(F)ccc(F)c4O)c(Cl)c3OC[C@H]2C1` [Z475-1, (6aR)-8-acryloyl-4-chloro-3-(3,6-difluoro-2-hydroxyphenyl)-1-((S)-4-(dimethylamino)-2,2-dimethylpyrrolidin-1-yl)-6,6a,7,8,9,10-hexahydro-12H-pyrazino[2,1-c]pyrido[3,4-f][1,4]oxazepin-12-one], the figures for the pIC50 in experiment [1], in experiment [2] and in experiment [3] were 8.70, 5.29 and 8.30, respectively.
